Results as given in patent EP3414211B1, “PLASTER COMPOSITION” (priority 2016, dated 2017).

Tests used:
[1] = Foam stability (foam half-life: time to recover one half of the original liquid volume from the foam); type: physicochemical
Experimental: (§1) For each mixture, foamability (foam volume) and foam stability were measured after one minute of foam generation with an Ultra Turrax system at 8200 rpm.
Also the foam stability was tested, by measuring the foam half-life, i.e. the amount of time it takes to recover one half of the original volume of liquid from a measured volume of foam.

[2] = Foamability (foam volume) after one minute of foam generation with an Ultra Turrax system at 8200 rpm; type: physicochemical
Experimental: The "foamability", i.e. the volume of foam produced, and the foam stability were tested for a number of combinations of foaming agent and co-surfactant. Specifically, a number of foaming solutions were prepared containing various amounts of foaming agent and co-surfactant. The following foaming agents were tested: FA1 mixture of linear sodium octyl sulfate, sodium decyl sulfate, and sodium dodecyl sulfate as described in EP1328485. FA2 sodium n-decyl sulfate (Empicol® 0758, available from Huntsman) FA3 alkyl ether sulfate (Millifoam® H, available from Huntsman) FA4 STEOL ® DES32-IS (alkyl ether sulfate based surfactant, available from Stepan)
Each of the foaming agents was mixed with 5 wt%, 10 wt%, and 20 wt% (relative to the weight of foaming agent) of the following co-surfactants: CS1 lauramine oxide (dodecyldimethylamine oxide), available under the trade name Empigen® OB (Huntsman Performance Products) CS2 C8-10alkyl polyglucoside available under the trade name Glucopon 215® (comparative example)
as §1

[3] = co-surfactant mixed at 5, 10, 20 wt% with foaming agents

SMILES	effect of co-surfactant on foam stability [1, 3]	effect of co-surfactant on foamability (foam volume) of the foaming agents [2, 3]	Half-life ([1]; 0 % CS1)	Half-life increase (%) ([1]; 0 % CS1 (baseline))	Half-life ([1]; 5 % CS1)	Half-life increase (%) ([1]; 5 % CS1, versus 0 % CS1)	Half-life ([1]; 10 % CS1)	Half-life increase (%) ([1]; 10 % CS1, versus 0 % CS1)	Half-life ([1]; 20 % CS1)	Half-life increase (%) ([1]; 20 % CS1, versus 0 % CS1)	Foam volume increase (%) ([2]; 0 % CS1 (baseline))	Foam volume ([2]; 0 % CS1 (wt% relative to total foaming agent and co-surfactant))	Foam volume ([2]; 5 % CS1)	Foam volume increase (%) ([2]; 5 % CS1, versus 0 % CS1)	Foam volume ([2]; 10 % CS1)	Foam volume increase (%) ([2]; 10 % CS1, versus 0 % CS1)	Foam volume ([2]; 20 % CS1)	Foam volume increase (%) ([2]; 20 % CS1, versus 0 % CS1)
CCCCCCCCCCCC[N+](C)(C)[O-] [CS1, dodecyldimethylamine oxide]	highest foam stability improvement	significantly increase																
CCCCCCCCCCOS(=O)(=O)[O-].[Na+] [FA2, sodium n-decyl sulfate]			5.78 min	0%	6.18 min	7%	6.87 min	11%	8.4 min	36%	0%	530 mL	562 mL	6%	599 mL	13%	588 mL	11%
